# US20240376052A1, “N-SUBSTITUTED INDOLE DERIVATIVES AS SEROTONERGIC AGENTS USEFUL FOR THE TREATMENT OF DISORDERS RELATED THERETO” (Mindset Pharma Inc., priority 2021, published 2024)
# Where two headings read alike, the source gives them in different places.
# How the values were obtained:
# Sprague-Dawley rats = test: Drug discrimination in the rat (5-MeO-DMT cue); assay type: in vivo; settings: for ED50: Rattus norvegicus, read-out: ED50, generalization to the 5-MeO-DMT cue; for dose required to show generalization to the 5-MeO-DMT cue: oral administration
# Procedure: Male Sprague-Dawley rats were initially food restricted by presentation of 18-20 g food at day end (single housing). After 7 days acclimatisation to the food restriction procedure, they were trained daily to lever press for food (45 mg Bioserve pellet) in standard 2-lever operant conditioning chambers controlled by Med-PC software over a period of 1 week (Med. Associates Ins., St. Albans, VT). The rats were trained to lever press for food to an FR10 value (i.e 10 lever presses for a single food reward). Once stable food responding was acquired to both response levers, discrimination training began. […] Training sessions lasted 30-min or until the delivery of 50 pellets and continued until the animals attained appropriate stimulus control (defined as six consecutive sessions where animals made no more than 16 lever presses before the delivery of the first reward, and at least 95% total responses on the appropriate lever). The rats continued to receive daily food ration in their home cage at day end.
# Once trained, tests of substitution were conducted. […] Test sessions continued until 50 pellets had been obtained or 30 min had elapsed. During these sessions response rate was also measured.
# human 5-HT2A receptor = human 5-HT2A receptor (Homo sapiens (Human), UniProt P28223); test: Human 5-HT2A radioligand binding assay ([3H]-ketanserin)
# mice = test: Mouse 5-HT syndrome assay; assay type: in vivo; settings: doses of up to 30 mg/kg
# Procedure: (§1) The effect of different doses of representative compounds of Formula I were evaluated on head-twitch response (HTR) and other behavioural responses indicative of serotonin syndrome as behavior-based models of psychedelic activity.
# C57BL/6J mice = test: Mouse head twitch; assay type: in vivo; settings: for head twitch response: doses of up to 30 mg/kg
# Procedure: as §1
# Male, C57BL/6J mice (body weight range 20-30 g) were dosed with the appropriate dose of test article, and following a 1-minute pre-treatment time, placed in individual observation chambers. Animals were visually assessed for the incidence head twitches continuously over a 1 hr period. Head twitches were defined as a rapid jerk of the head which was not elicited by an external tactile stimulus (Come and Pickering, Psychopharmacologia, 1967, 11(1): 65-78). Each head twitch was individually counted by a trained observer, and the data expressed as the mean+SEM of 6-10 mice per group. Mice were used in a single experiment only.
# [1] = Liver microsomes stability, human; settings: for Predicted hepatic CL: Human liver microsomes; for Remaining Percentage (%): Human; for CLint scaled at 2 μM / half-life at 2 μM / microsomal CLint at 2 μM: human, microsomes
# Procedure: (§2) The objective of this study was to estimate in vitro metabolic stability of representative compounds of the application in pooled human and male mouse liver microsomes. The concentrations of parent compounds in reaction systems were evaluated by LC-MS/MS for estimating the stability in pooled human and male mouse liver microsomes. The in vitro intrinsic clearances of test compounds were determined as well.
# (§3) A master solution in the “Incubation Plate” containing phosphate buffer, ultra-pure H2O, MgCl2 solution and liver microsomes was made according to Table 3. The mixture was pre-warmed at 37° C. water bath for 5 minutes.
# (§4) 40 μL of 10 mM NADPH solution was added to each well. The final concentration of NADPH was 1 mM. The negative control samples were prepared by replacing NADPH with 40 μL of ultra-pure H2O. Samples were prepared in duplicate. Negative controls were prepared in singlet.
# (§5) The reaction was started with the addition of 4 μL of 200 μM test compounds or control compounds to each master solution to get the final concentration of 2 μM. This study was performed in duplicate.
# (§6) Aliquots of 50 μL were taken from the reaction solution at 0, 15, 30, 45 and 60 minutes. The reaction solutions were stopped by the addition of 4 volumes of cold methanol with IS (100 nM alprazolam, 200 nM imipramine, 200 nM labetalol and 2 μM ketoprofen). Samples were centrifuged at 3,220 g for 40 minutes. Aliquot of 90 μL of the supernatant was mixed with 90 μL of ultra-pure H2O and then was used for LC-MS/MS analysis.
# (§7) LC/MS analysis was performed for all samples from this study using a Shimadzu liquid chromatograph separation system equipped with degasser DGU-20A5R; solvent delivery unit LC-30AD; system controller SIL-30AC; column oven CTO-30A; CTC Analytics HTC PAL System. Mass spectrometric analysis was performed using an Triple Quad™ 5500 instrument.
# (§8) All calculations were carried out using Microsoft Excel. Peak area ratios of test compound to internal standard (listed in the below table) were determined from extracted ion chromatograms.
# (§9) All calculations were carried out using Microsoft Excel. Peak areas were determined from extracted ion chromatograms. The slope value, k, was determined by linear regression of the natural logarithm of the remaining percentage of the parent drug vs. incubation time curve.
# (§10) The in vitro half-life (in vitro t1/2) was determined from the slope value:
# (§11) Conversion of the in vitro t1/2(min) into the in vitro intrinsic clearance (in vitro CLint, in μL/min/mg proteins) was done using the following equation (mean of duplicate determinations): […]
# [2] = Liver microsomes stability, dog; settings: for Predicted hepatic CL: Dog liver microsomes; for Remaining Percentage (%): Dog; for CLint scaled at 2 μM / half-life at 2 μM / microsomal CLint at 2 μM: dog, microsomes
# [3] = Liver microsomes stability, rat; settings: for Predicted hepatic CL: Rat liver microsomes; for Remaining Percentage (%): Rat; for CLint scaled at 2 μM / half-life at 2 μM / microsomal CLint at 2 μM: rat, microsomes
# Procedure: as §2, §3, §4, §5, §6, §7, §8, §9, §10, §11
# [4] = Liver microsomes stability, mouse; settings: for Predicted hepatic CL: Mouse liver microsomes; for Remaining Percentage (%): Mouse; for CLint scaled at 2 μM / half-life at 2 μM / microsomal CLint at 2 μM: male, mouse, microsomes
# Procedure: as §2, §3, §4, §5, §6, §7, §8, §9, §10, §11
smiles,measurement,setting,value
"[2H]C([2H])(c1cn(C(=O)CCCCCCC/C=C\C/C=C\CCCCC)c2ccc(OC)cc12)[C@H]1CCCN1C([2H])([2H])[2H] [Compound I-3, (9Z,12Z)-1-(5-Methoxy-3-(((R)-1-(methyl-d3)pyrrolidin-2-yl)methyl-d2)-1H-indol-1-yl)octadeca-9,12-dien-1-one]",ED50,"Sprague-Dawley rats; SC administration, FIG. 8",~6 mg/kg
same,dose required to show generalization to the 5-MeO-DMT cue,Sprague-Dawley rats; FIG. 8,100 mg/kg
same,IC50,human 5-HT2A receptor,< 2000 nM
same,signs of 5-HT syndrome,mice,no signs of 5-HT syndrome
same,head twitch response,C57BL/6J mice; mouse,robust head twitch response
"COc1ccc2[nH]cc(CCN(C)C)c2c1 [Compound 5-MeO-DMT, 5-methoxy-dimethoxytryptamine, reference compound]","ED50, generalization to the 5-MeO-DMT cue","Sprague-Dawley rats; SC administration, FIG. 8",~0.2 mg/kg
same,dose required to show generalization to the 5-MeO-DMT cue,Sprague-Dawley rats; FIG. 8,10 mg/kg
same,"ED50, head twitch response","C57BL/6J mice; mouse, SC",8 mg/kg
same,duration of HT expression,"C57BL/6J mice; mouse, at 10-30 mg/kg",0 to 20 min
"[2H]C([2H])(c1cn(C(=O)CCCCCCC/C=C\C/C=C\CCCCC)c2ccccc12)[C@H]1CCCN1C([2H])([2H])[2H] [Compound I-2, (9Z,12Z)-1-(3-(((R)-1-(Methyl-d3)pyrrolidin-2-yl)methyl-d2)-1H-indol-1-yl)octadeca-9,12-dien-1-one]",Predicted hepatic CL,[1],5.79 mL/min/kg
same,Remaining Percentage (%),"[1]; With NADPH, 0 min",100.00%
same,Remaining Percentage (%),"[1]; With NADPH, 30 min",87.61%
same,Remaining Percentage (%),"[1]; With NADPH, 60 min",82.52%
same,Remaining Percentage (%),"[1]; Without NADPH, 0 min",100.00%
same,Remaining Percentage (%),"[1]; Without NADPH, 30 min",114.91%
same,Remaining Percentage (%),"[1]; Without NADPH, 60 min",83.75%
same,CLint scaled at 2 μM,[1],8.03 mL/min/kg
same,half-life at 2 μM,[1],3.61 h
same,microsomal CLint at 2 μM,[1],6.4 µL/min/mg
same,ED50,Sprague-Dawley rats,~30 mg/kg
same,level of partial generalization to the 5-MeO-DMT cue,"Sprague-Dawley rats; rats trained to 1 mg/kg 5-MeO-DMT vs saline, FIG. 7",~60%
same,IC50,human 5-HT2A receptor,< 2000 nM
same,signs of 5-HT syndrome,mice,no signs of 5-HT syndrome
same,Predicted hepatic CL,[2],22.14 mL/min/kg
same,Remaining Percentage (%),"[2]; With NADPH, 0 min",100.00%
same,Remaining Percentage (%),"[2]; With NADPH, 30 min",66.91%
same,Remaining Percentage (%),"[2]; With NADPH, 60 min",39.08%
same,Remaining Percentage (%),"[2]; Without NADPH, 0 min",100.00%
same,Remaining Percentage (%),"[2]; Without NADPH, 30 min",94.42%
same,Remaining Percentage (%),"[2]; Without NADPH, 60 min",91.63%
same,CLint scaled at 2 μM,[2],78.1 mL/min/kg
same,half-life at 2 μM,[2],0.738 h
same,microsomal CLint at 2 μM,[2],31.3 µL/min/mg
same,head twitch response,C57BL/6J mice; mouse,robust head twitch response
same,Predicted hepatic CL,[3],27.34 mL/min/kg
same,Remaining Percentage (%),"[3]; With NADPH, 0 min",100.00%
same,Remaining Percentage (%),"[3]; With NADPH, 30 min",56.08%
same,Remaining Percentage (%),"[3]; With NADPH, 60 min",40.37%
same,Remaining Percentage (%),"[3]; Without NADPH, 0 min",100.00%
same,Remaining Percentage (%),"[3]; Without NADPH, 30 min",94.64%
same,Remaining Percentage (%),"[3]; Without NADPH, 60 min",84.47%
same,CLint scaled at 2 μM,[3],54.2 mL/min/kg
same,half-life at 2 μM,[3],0.764 h
same,microsomal CLint at 2 μM,[3],30.2 µL/min/mg
same,Predicted hepatic CL,[4],50.97 mL/min/kg
same,Remaining Percentage (%),"[4]; With NADPH, 0 min",100.00%
same,Remaining Percentage (%),"[4]; With NADPH, 30 min",71.53%
same,Remaining Percentage (%),"[4]; With NADPH, 60 min",44.66%
same,Remaining Percentage (%),"[4]; Without NADPH, 0 min",100.00%
same,Remaining Percentage (%),"[4]; Without NADPH, 30 min",95.81%
same,Remaining Percentage (%),"[4]; Without NADPH, 60 min",80.93%
same,CLint scaled at 2 μM,[4],118 mL/min/kg
same,half-life at 2 μM,[4],0.86 h
same,microsomal CLint at 2 μM,[4],26.9 µL/min/mg
"COc1cccc([C@H](O)C2CCN(CCc3ccc(F)cc3)CC2)c1OC [Compound M100907, reference compound]",effect of antagonist pretreatment on HTR induced by I-1,C57BL/6J mice; mice pretreated with M100907 prior to I-1,completely blocked
"CCCCC/C=C\C/C=C\CCCCCCCC(=O)n1cc(CCN(C)C)c2ccccc21 [Compound I-8, (9Z,12Z)-1-(3-(2-(Dimethylamino)ethyl)-1H-indol-1-yl)octadeca-9,12-dien-1-one]",Predicted hepatic CL,[1],2.16 mL/min/kg
same,Remaining Percentage (%),"[1]; With NADPH, 0 min",100.00%
same,Remaining Percentage (%),"[1]; With NADPH, 30 min",91.39%
same,Remaining Percentage (%),"[1]; With NADPH, 60 min",94.38%
same,Remaining Percentage (%),"[1]; Without NADPH, 0 min",100.00%
same,Remaining Percentage (%),"[1]; Without NADPH, 30 min",91.04%
same,Remaining Percentage (%),"[1]; Without NADPH, 60 min",100.94%
same,CLint scaled at 2 μM,[1],2.42 mL/min/kg
same,half-life at 2 μM,[1],12 h
same,microsomal CLint at 2 μM,[1],1.93 µL/min/mg
same,IC50,"human 5-HT2A receptor; [3H]-ketanserin competition, read-out: h5-HT2A IC50",< 2000 nM
same,Predicted hepatic CL,[2],18.69 mL/min/kg
same,Remaining Percentage (%),"[2]; With NADPH, 0 min",100.00%
same,Remaining Percentage (%),"[2]; With NADPH, 30 min",66.41%
same,Remaining Percentage (%),"[2]; With NADPH, 60 min",56.62%
same,Remaining Percentage (%),"[2]; Without NADPH, 0 min",100.00%
same,Remaining Percentage (%),"[2]; Without NADPH, 30 min",84.36%
same,Remaining Percentage (%),"[2]; Without NADPH, 60 min",92.44%
same,CLint scaled at 2 μM,[2],47.3 mL/min/kg
same,half-life at 2 μM,[2],1.22 h
same,microsomal CLint at 2 μM,[2],19 µL/min/mg
same,Predicted hepatic CL,[3],12.94 mL/min/kg
same,Remaining Percentage (%),"[3]; With NADPH, 0 min",100.00%
same,Remaining Percentage (%),"[3]; With NADPH, 30 min",91.29%
same,Remaining Percentage (%),"[3]; With NADPH, 60 min",75.35%
same,Remaining Percentage (%),"[3]; Without NADPH, 0 min",100.00%
same,Remaining Percentage (%),"[3]; Without NADPH, 30 min",107.31%
same,Remaining Percentage (%),"[3]; Without NADPH, 60 min",109.93%
same,CLint scaled at 2 μM,[3],16.9 mL/min/kg
same,half-life at 2 μM,[3],2.45 h
same,microsomal CLint at 2 μM,[3],9.44 µL/min/mg
same,Predicted hepatic CL,[4],6.52 mL/min/kg
same,Remaining Percentage (%),"[4]; With NADPH, 0 min",100.00%
same,Remaining Percentage (%),"[4]; With NADPH, 30 min",105.41%
same,Remaining Percentage (%),"[4]; With NADPH, 60 min",95.29%
same,Remaining Percentage (%),"[4]; Without NADPH, 0 min",100.00%
same,Remaining Percentage (%),"[4]; Without NADPH, 30 min",87.39%
same,Remaining Percentage (%),"[4]; Without NADPH, 60 min",85.47%
same,CLint scaled at 2 μM,[4],7.03 mL/min/kg
same,half-life at 2 μM,[4],14.4 h
same,microsomal CLint at 2 μM,[4],1.61 µL/min/mg
